Assay results as given in ChEMBL document CHEMBL1201862, “PubChem BioAssay data set” (2004).
Active and inactive are the calls of the source.

Columns and labels:
[1] = target: T1, Potassium channel subfamily K member 9 (Homo sapiens, UniProt Q9NPC2); experiment: KCNK9 flux blockade, concentration-response – cell-based, FluxOR thallium flux, selectivity assay for TASK1 inhibitor project, SAR follow-up (AID 652211); assay type: functional;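 further: potency is for inhibitors of the channel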
[2] = target: Potassium channel subfamily K member 3 (Rattus norvegicus, UniProt O54912); experiment: SAR analysis for the identification of selective inhibitors of the two-pore domain potassium channel TASK1(KCNK3):Automated Electrophysiology.; assay type: functional
Chain of Potassium channel subfamily K member 3 (O54912 whole entry, the tested form may be a part): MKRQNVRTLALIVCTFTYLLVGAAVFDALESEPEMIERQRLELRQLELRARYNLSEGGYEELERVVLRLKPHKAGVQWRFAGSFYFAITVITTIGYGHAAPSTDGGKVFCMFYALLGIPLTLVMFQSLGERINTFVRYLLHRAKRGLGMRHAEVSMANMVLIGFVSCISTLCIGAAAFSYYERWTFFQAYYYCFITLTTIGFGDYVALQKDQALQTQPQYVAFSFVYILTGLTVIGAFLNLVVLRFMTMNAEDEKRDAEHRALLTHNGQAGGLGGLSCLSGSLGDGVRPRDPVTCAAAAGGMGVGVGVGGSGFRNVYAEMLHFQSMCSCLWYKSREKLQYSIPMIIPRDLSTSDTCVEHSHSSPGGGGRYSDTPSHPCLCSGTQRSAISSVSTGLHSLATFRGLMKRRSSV

[3] = target: T1, Potassium channel subfamily K member 9; experiment: TASK3 channel blockers, electrophysiology – cell-based, automated electrophysiology, selectivity assay for TASK1 (KCNK3) inhibitor project, SAR follow-up (AID 652210); assay type: functional
[4] = target: T2, Methionyl-tRNA synthetase, putative (Trypanosoma brucei brucei, UniProt Q38C91); assay type: functional, Trypanosoma brucei brucei strain 927/4 GUTat10.1
T2 sequence (Q38C91 whole entry): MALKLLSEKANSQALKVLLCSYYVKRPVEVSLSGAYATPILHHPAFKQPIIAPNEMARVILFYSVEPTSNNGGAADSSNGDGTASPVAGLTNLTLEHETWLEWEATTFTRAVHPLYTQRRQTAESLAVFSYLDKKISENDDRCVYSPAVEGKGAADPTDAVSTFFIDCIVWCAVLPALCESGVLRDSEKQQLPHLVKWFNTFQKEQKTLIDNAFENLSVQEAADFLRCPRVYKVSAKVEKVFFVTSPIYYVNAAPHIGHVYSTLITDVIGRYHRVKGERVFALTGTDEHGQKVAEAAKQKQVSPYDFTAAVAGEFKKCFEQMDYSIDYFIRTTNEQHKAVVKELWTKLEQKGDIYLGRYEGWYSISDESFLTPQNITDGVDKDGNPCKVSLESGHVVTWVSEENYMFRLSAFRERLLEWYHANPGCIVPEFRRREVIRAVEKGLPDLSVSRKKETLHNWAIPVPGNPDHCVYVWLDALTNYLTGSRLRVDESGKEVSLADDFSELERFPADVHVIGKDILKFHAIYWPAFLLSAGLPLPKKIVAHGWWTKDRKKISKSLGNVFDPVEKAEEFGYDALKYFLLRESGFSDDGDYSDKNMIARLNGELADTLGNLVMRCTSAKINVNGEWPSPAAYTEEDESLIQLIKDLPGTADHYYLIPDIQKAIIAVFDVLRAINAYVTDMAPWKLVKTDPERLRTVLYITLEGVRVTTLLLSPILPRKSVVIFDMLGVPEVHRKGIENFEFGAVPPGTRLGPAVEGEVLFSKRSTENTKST

[5] = target: T2, Methionyl-tRNA synthetase, putative; assay type: functional, Trypanosoma brucei brucei strain 927/4 GUTat10.1; remark: listed apart in the source
[6] = Counterscreen for inhibitors of Trypanosoma brucei methionyl tRNA synthetase (MetRS): Luminescence-based cell-based high throughput dose response assay to identify compounds that are cytotoxic to Jurkat human T lymphocyte cells.; assay type: functional
[7] = Late stage counterscreen for inhibitors of Trypanosoma brucei methionyl tRNA synthetase (MetRS): Luminescence-based cell-based high throughput dose response assay to identify compounds that are cytotoxic to Jurkat human T lymphocyte cells.; assay type: functional
[8] = target: NAD-dependent protein deacylase sirtuin-5, mitochondrial (Homo sapiens, UniProt Q9NXA8); experiment: sirtuin-5 deacylation blockers, concentration series – biochemical, fluorescence imaging, cherry-pick, set 5, dose response (AID 720591);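 further: desuccinylation of succinyl peptide AMC substrate read as fluorescence after trypsin release; potency of inhibitors that lower fluorescence and may act on trypsin instead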
Chain of NAD-dependent protein deacylase sirtuin-5, mitochondrial (Q9NXA8 whole entry): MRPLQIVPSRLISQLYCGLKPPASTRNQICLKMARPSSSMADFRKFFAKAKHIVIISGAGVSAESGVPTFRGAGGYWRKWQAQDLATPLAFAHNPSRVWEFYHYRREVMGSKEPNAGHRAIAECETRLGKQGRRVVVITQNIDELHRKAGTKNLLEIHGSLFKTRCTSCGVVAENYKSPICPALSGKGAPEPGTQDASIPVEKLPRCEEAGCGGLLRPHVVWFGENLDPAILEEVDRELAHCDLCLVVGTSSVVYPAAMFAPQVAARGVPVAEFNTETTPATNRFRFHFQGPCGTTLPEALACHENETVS

H4 = experiment: Luminescence Cell-Based Dose Response HTS to Identify Activators of 5'UTR Stem-Loop Driven Prion Protein mRNA Translation in H4 Neuroglioblastoma Cells. [Related pubchem assays: 1829 (Project Summary), 1814 (Primary HTS)]; assay type: functional; conditions: Homo sapiens
Transthyretin = Transthyretin (Homo sapiens, UniProt P02766); experiment: Luminescence-based cell-based high throughput dose response assay to identify activators of Transthyretin (TTR) transcription.; assay type: functional
[9] = Luminescence Cell-Based Dose Confirmation HTS to Identify Activators of 5'UTR Stem-Loop Driven Alpha-Synuclein mRNA Translation in H4 Neuroglioblastoma Cells. [Related pubchem assays: 1829 (Project Summary), 1814 (Primary HTS)]; assay type: functional
[10] = Luminescence Cell-Based Dose Response HTS to Identify Activators of Luciferase Translation or Activity in H4 […] Cells. [Related pubchem assays: 1829 (Project Summary), 1814 (Primary HTS)]; assay type: functional
[11] = target: E3 ubiquitin-protein ligase UHRF1 (Homo sapiens, UniProt Q96T88); experiment: Counterscreen for inhibitors of 5-meCpG-binding domain protein 2 (MBD2): TRFRET-based biochemical high throughput dose response assay to identify inhibitors of binding of ubiquitin-like with PHD and ring finger domains 1 (UHRF1) to methylated oligonucleotide.
Chain of E3 ubiquitin-protein ligase UHRF1 (Q96T88 whole entry, the tested form may be a part): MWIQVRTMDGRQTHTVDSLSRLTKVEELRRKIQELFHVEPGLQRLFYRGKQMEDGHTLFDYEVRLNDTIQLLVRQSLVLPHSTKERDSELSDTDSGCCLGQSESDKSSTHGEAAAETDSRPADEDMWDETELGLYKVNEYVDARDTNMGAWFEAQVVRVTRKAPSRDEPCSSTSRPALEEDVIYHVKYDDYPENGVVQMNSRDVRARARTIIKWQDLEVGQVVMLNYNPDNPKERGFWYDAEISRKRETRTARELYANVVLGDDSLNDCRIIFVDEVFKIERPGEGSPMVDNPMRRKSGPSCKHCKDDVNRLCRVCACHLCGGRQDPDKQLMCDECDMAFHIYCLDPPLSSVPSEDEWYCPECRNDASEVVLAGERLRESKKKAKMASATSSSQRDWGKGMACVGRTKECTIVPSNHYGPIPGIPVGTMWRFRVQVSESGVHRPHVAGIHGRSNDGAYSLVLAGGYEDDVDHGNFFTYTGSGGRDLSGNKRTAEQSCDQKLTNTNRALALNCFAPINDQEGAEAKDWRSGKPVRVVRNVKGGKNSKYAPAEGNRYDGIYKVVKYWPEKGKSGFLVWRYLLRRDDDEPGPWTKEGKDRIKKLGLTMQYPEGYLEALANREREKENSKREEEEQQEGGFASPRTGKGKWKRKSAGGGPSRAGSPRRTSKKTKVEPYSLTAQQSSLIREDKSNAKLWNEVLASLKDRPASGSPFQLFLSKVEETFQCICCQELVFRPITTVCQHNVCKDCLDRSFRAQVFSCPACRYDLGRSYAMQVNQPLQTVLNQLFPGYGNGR

Estrogen receptor beta [12] = target: T3, Estrogen receptor beta (Homo sapiens, UniProt Q92731); experiment: blockers of SRC-3 recruitment to ERβ – biochemical, ELISA, streptavidin-HRP readout, orthogonal assay, confirmation (AID 1060)
T3 sequence (Q92731 whole entry): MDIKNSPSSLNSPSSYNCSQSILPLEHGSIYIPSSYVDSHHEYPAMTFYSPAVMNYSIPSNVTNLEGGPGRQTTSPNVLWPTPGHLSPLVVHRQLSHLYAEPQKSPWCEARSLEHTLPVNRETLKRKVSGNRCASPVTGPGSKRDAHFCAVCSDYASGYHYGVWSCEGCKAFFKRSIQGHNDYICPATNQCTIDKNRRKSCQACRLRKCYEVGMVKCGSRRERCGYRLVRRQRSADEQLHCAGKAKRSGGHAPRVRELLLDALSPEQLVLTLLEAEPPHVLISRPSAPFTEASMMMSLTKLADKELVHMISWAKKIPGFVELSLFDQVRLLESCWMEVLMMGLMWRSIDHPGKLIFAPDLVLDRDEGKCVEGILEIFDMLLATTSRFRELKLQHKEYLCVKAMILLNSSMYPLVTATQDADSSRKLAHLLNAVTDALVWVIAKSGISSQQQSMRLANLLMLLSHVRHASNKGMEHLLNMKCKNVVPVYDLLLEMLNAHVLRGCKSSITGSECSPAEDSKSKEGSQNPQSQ

Estrogen receptor beta [13] = target: T3, Estrogen receptor beta
[14] = CellTiter-Glo luminescence survival assay, SW480 colon tumor line, concentration-response curve, half-maximal inhibitory concentration (AID 1117338); assay type: functional
[15] = cytotoxicity toward HCT116 cells – cell-based, CellTiter-Glo luminescence, IC50, dose response (AID 1117332); assay type: functional; conditions: HCT-116
[16] = cytotoxicity toward HT-29 cells – cell-based, CellTiter-Glo luminescence, IC50, dose response (AID 1117330); assay type: functional
[17] = RKO cell viability reduction, dose response, CellTiter-Glo luminescence (AID 1117322); assay type: functional
[18] = cytotoxicity toward Colo320 cells – cell-based, CellTiter-Glo luminescence, IC50, dose response (AID 1117334); assay type: functional; conditions: COLO 320
[19] = SNU-C1 cell viability reduction, dose response, CellTiter-Glo luminescence (AID 1117323); assay type: functional, cell-based
[20] = HCT116 cell viability decrease, GSK3B pretreatment – CellTiter-Glo, IC50, dose response (AID 1117339); assay type: functional; conditions: HCT-116
[21] = Reduced DLD-1 viability, concentration-response, CellTiter-Glo luminescence (AID 1117352); assay type: functional
[22] = target: T4, Oxysterols receptor LXR-beta (Homo sapiens, UniProt P55055); assay type: functional, cell-based;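 further: Cell-based luminescence dose-response assay of agonist activity at LXR, run as a confirmatory counterscreen to a daf-12 agonist screen; agonist potency from rising luciferase signal of a Gal4-LXR reporter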
T4 sequence (P55055 whole entry): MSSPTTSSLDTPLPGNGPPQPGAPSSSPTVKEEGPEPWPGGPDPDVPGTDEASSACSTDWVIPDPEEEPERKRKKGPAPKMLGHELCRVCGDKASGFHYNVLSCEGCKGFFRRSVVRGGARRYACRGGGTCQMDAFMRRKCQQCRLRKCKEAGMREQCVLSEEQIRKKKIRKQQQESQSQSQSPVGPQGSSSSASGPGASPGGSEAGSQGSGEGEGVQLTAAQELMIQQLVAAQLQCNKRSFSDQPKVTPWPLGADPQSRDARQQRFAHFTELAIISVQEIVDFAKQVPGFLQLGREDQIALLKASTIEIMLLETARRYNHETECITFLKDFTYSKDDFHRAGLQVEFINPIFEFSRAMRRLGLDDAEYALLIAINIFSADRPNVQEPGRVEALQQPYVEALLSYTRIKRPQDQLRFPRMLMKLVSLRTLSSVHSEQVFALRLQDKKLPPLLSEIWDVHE

[23] = Luminescence-based cell-based high throughput dose response assay to identify activators of the DAF-12 from the parasite S. stercoralis (ssDAF-12).; assay type: functional
[24] = target: T4, Oxysterols receptor LXR-beta; experiment: LXR agonists, Gal4 luciferase reporter, dose response, counter-screen for ssDAF-12 agonist project, cell-based, luminescence, HEK293, S. stercoralis campaign (AID 720737); assay type: functional; conditions: read-out: IC50 (the source's name)

T1 sequence (Q9NPC2 whole entry, the tested form may be a part): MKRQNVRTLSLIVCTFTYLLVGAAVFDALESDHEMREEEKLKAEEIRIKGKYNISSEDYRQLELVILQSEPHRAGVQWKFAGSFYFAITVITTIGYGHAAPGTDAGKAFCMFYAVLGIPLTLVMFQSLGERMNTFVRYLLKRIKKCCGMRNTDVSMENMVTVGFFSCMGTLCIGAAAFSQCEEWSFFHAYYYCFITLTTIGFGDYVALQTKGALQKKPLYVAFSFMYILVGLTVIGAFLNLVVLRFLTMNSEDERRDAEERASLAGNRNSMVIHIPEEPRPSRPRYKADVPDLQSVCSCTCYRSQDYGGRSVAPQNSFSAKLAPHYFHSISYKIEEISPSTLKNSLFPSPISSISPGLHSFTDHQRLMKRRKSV

SMILES: COc1ccccc1C(=O)Nc1cccc(NC(=O)c2cccc(C)c2)c1
- IC50 [1]: 0.26 µM (active)
- IC50 [2]: 0.012 µM (active)
- IC50 [3]: 0.48 µM (active)

SMILES: CC(C)(C)[C@H]1C=C(C(=O)NCc2nc3ccccc3[nH]2)O[C@@H](OCc2ccc(CO)cc2)C1
- IC50 [4]: 1.99 µM (active)
- IC50 [5]: 3.78 µM (active)
- IC50 [6]: 44.2 µM (inactive)
- IC50 [7]: 77 µM (inactive)

SMILES: O=C(O)CCNC(=O)c1ccc(NC(=O)Cc2ccc(Cl)cc2)cc1
- AC50 [8]: 18.8 µM (active)

SMILES: COc1cccc(-c2csc(NC(=O)C3CC3)n2)c1
- EC50 (H4): > 120 µM (not active)
- EC50 (Transthyretin): > 167 µM (inactive)
- EC50 [9]: 94 µM (active)
- EC50 [10]: 33.5 µM (active)

SMILES: Cc1onc(-c2ccccc2Cl)c1C(=O)NCc1ccco1
- IC50 [11]: > 43.8 µM (inactive)
- IC50 (Estrogen receptor beta [12]): > 50 µM (not active)
- IC50 (Estrogen receptor beta [13]): > 50 µM (not active)

SMILES: C/C(=N\O)[C@@H](C)NCC(C)(C)CN[C@H](C)/C(C)=N/O
- IC50 [14]: > 20 µM (inactive)
- IC50 [15]: > 20 µM (inactive)
- IC50 [16]: > 20 µM (inactive)
- IC50 [17]: > 20 µM (inactive)
- IC50 [18]: > 20 µM (inactive)
- IC50 [19]: > 20 µM (inactive)
- IC50 [20]: > 20 µM (inactive)
- IC50 [21]: > 20 µM (inactive)

SMILES: COc1cccc(-c2nc3n(n2)CCc2ccccc2-3)c1
- EC50 (cells): > 67.5 µM (inactive)
- EC50 [22]: > 67.5 µM (inactive)

SMILES: C[C@@H](c1ccccc1)N1C[C@@H](COCc2ccccc2)Oc2cc(N3CCC[C@H]3C(N)=O)ccc2S1(=O)=O
- IC50 [23]: > 67.5 µM (inactive)
- EC50 [24]: > 67.5 µM (inactive)
